What was measured:
Assay in all cases: functional complementation in beta-carotene-accumulating E. coli, HPLC of carotenoids
Format in all cases: cell-based
Conditions in all cases: E. coli BL21(DE3) with pACCAR16ΔcrtX, 16 °C, 16 h
CsBCH2a = molecular target: T1, CsBCH2a (Citrus sinensis, UniProt A0ACB8LPZ5)
T1 construct: gene KPL71_006397; full ORF in pHIS8 (His tag), E. coli BL21(DE3); allele identical in mandarin and sweet orange, two non-synonymous sites versus CsBCH2b

CsBCH1 = molecular target: T2, CsBCH1 (Citrus sinensis, UniProt Q0QVY5)
T2 construct: gene Chyb; full ORF in pHIS8 (His tag), E. coli BL21(DE3)
T2 sequence (Q0QVY5 1-311): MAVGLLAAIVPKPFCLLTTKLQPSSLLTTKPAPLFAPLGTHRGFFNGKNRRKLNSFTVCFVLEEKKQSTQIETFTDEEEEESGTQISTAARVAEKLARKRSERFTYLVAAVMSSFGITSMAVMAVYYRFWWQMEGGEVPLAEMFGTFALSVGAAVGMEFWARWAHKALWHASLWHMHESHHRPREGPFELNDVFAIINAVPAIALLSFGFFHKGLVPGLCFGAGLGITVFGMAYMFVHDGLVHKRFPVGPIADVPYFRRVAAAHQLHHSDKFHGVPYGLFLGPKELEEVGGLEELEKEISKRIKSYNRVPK

CsBCH2b = molecular target: T3, CsBCH2b (Citrus sinensis, UniProt A0ACB8LPZ5)
T3 construct: gene KPL71_006397; full ORF in pHIS8 (His tag), E. coli BL21(DE3); allele found in pummelo and sweet orange, two non-synonymous sites versus CsBCH2a
T3 sequence (A0ACB8LPZ5 entry or part of it): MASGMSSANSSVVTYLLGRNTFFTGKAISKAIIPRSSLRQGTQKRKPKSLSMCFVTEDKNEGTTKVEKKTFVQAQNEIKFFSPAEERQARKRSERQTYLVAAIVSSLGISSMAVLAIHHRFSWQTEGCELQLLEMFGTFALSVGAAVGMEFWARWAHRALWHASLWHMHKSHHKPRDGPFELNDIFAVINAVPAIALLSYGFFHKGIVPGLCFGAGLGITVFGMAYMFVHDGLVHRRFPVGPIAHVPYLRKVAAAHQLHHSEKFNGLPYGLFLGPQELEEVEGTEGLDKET

T1 sequence (A0ACB8LPZ5 entry or part of it): as above

Compound | functional complementation in beta-carotene-accumulating E. coli, HPLC of carote (CsBCH2a) | functional complementation in beta-carotene-accumulating E. coli, HPLC of carote (CsBCH1) | functional complementation in beta-carotene-accumulating E. coli, HPLC of carote (CsBCH2b) | functional complementation in beta-carotene-accumulating E. coli, HPLC of carote (CsBCH1; intermediate formed in the cells, hydroxylated on to zeaxanthin)
CC1=C(/C=C/C(C)=C/C=C/C(C)=C/C=C/C=C(C)/C=C/C=C(C)/C=C/C2=C(C)CCCC2(C)C)C(C)(C)CCC1 [β-carotene] | CsBCH2a and CsBCH2b hydroxylated β-carotene to generate only β-cryptoxanthin in E. coli | CsBCH1 effectively hydroxylated the two β-rings of β-carotene | CsBCH2a and CsBCH2b hydroxylated β-carotene to generate only β-cryptoxanthin in E. coli | 
CC1=C(/C=C/C(C)=C/C=C/C(C)=C/C=C/C=C(C)/C=C/C=C(C)/C=C/C2=C(C)C[C@@H](O)CC2(C)C)C(C)(C)CCC1 [β-cryptoxanthin] |  |  |  | mono-hydroxylated intermediate β-cryptoxanthin and the di-hydroxylated product zeaxanthin
